Experimental data published in article PMC11232401, “Characterization of antimalarial activity of artemisinin-based hybrid drugs” (Antimicrobial Agents and Chemotherapy, 2024).
Like-named read-outs stand apart in the source and are kept apart here.

Assays:
[1] = elimination half-life; cited from earlier work
[2] = system: heme (iron II)-initiated β-hematin formation; test: β-hematin inhibitory activity under reducing condition (R-BHIA); format: biochemical; settings: for IC50: mean (95% CI); for Fold changes, IC50 (10 minutes) to IC50 (120 minutes): R-BHIA
Method: The compounds were dissolved in DMSO and diluted in DMSO to six different concentrations (1.0–32 mM). Hemin (Fe^III[PPIX]Cl) (BioXtra, Sigma-Aldrich) was first dissolved in 0.1 M NaOH and then suspended in an 80:20 vol/vol mixture of DMSO and propionate buffer (0.1 M, pH 5.6) to a stock solution at 8 mM. Reduced glutathione (GSH) was dissolved in 0.1 M NaOH and then adjusted to 10 mM using propionate buffer (0.1 M, pH 5.6). […] Then, 20 µL of the drug was added, and the plates were incubated for 2 h at 37°C. The plastic film was removed after drug incubation, 160 µL propionate buffer (1.0 M, pH 5.6) was added, and plates were incubated for 18 h at 37°C. BHIA under the oxidizing condition (O-BHIA) was prepared in parallel without adding GSH. Controls included wells without drugs and wells containing PBS 1× instead of propionate buffer. Afterward, the plates were centrifuged, the supernatant was discarded, and the pellets of β-hematin crystals were washed twice with pure DMSO and then water. The resulting β-hematin crystals were then dissolved in 200 µL 0.1 M NaOH and diluted to a 1:8 ratio. Aliquots were then transferred into a new plate and read by UV-visible absorbance at […]. Percent of BHIA was calculated in comparison to untreated wells (no drugs), and IC50 was then calculated. Two independent experiments were performed using three replicates of each drug concentration ([46]).
Figure S6: A summary of IC50 values derived from β-hematin inhibitory activity (BHIA). Footnotes for table: ^[a,b^] Values are mean and 95% confidence interval of one experiment, each concentration in triplicate. ^[a] Using heme (Fe[II]PPIX[Cl]) as a starting reagent. ^[b] Using hematin (Fe[III]PPIX[OH]) as a starting reagent. ^[c] […] CQ = chloroquine. R-BHIA = reducing β-hematin inhibitory activity. O-BHIA = oxidizing β-hematin inhibitory activity.

P. falciparum = test: Parasite growth inhibition (cell potency); format: cell-based; settings: Plasmodium falciparum; strain and exposure not stated at the place
[3] = In vitro metabolic stability assay in microsomes; format: in vitro ADME; settings: for half-life at 1 µM: read-out: Degradation half-life; for microsomal CLint at 1 µM: 0.4 mg/mL
Method: In vitro microsomal stability assay was performed in duplicate in a 96-well microtiter plate, using a single-point experiment design ([42]). Test compounds (1 µM) were incubated individually in human (pool of 50, mixed gender), rat (pool of 711, male Sprague Dawley), and mouse (pool of 1,634, male CD1) liver microsomes (Xenotech, Kansas, USA) to a final protein concentration of 0.4 mg/mL, suspended in 0.1 M phosphate buffer (pH 7.4). Incubations were started by the addition of NADPH (1 mM) as a cofactor and shaken for 30 min at 37°C. The reactions were quenched by the addition of 300 µL of ice-cold acetonitrile containing an internal standard (carbamazepine, 0.0236 µg/mL) and centrifuged. The supernatant was transferred to a fresh 96-well plate and analyzed by liquid chromatography-tandem mass spectrometry (LC-MS/MS) (Agilent Rapid Resolution HPLC, AB SCIEX 4500 MS). The relative loss of the parent compound over time was monitored, and plots (concentration vs time) were prepared per compound to determine the first-order rate constant for compound depletion. This was in turn used to calculate half-life, in vitro intrinsic clearance (Clint), and in vivo hepatic extraction ratio ([43]).

P. berghei-infected mice = system: P. berghei-infected mice; design: method as in PMID 31290221, PMID 34832911, PMID 38559731; settings: Peters test; cited from earlier work
[4] = system: F32-ART (resistant) early ring-stage parasites; test: Ring-stage survival assay (RSA0-3h); format: cell-based, Plasmodium falciparum; settings: 700 nM, 6 h pulse, 66 h growth
Method: Early ring-stage parasites (0–3 h post-invasion) of F32-ART and F32-TEM strains highly synchronized by Percoll-Sorbitol treatment were exposed to 700 nM of the drugs or 0.1% DMSO (control) for 6 h. Each drug was tested in duplicate. Parasite pellets were then washed in RPMI-1640 medium before being placed in drug-free culture conditions with 10% human serum and incubated for 66 h ([44]). Survival rates were assessed microscopically by two independent microscopists by counting the parasites in 10,000 RBCs. Three independent experiments were performed.

[5] = reductive step 10 minutes, read-out: IC50 (µM) values of R-BHIA using heme (iron II), 10 minutes
[6] = reductive step 120 minutes, read-out: IC50 (µM) values of R-BHIA using heme (iron II), 120 minutes
[7] = both sexes, pH 7.4, human liver microsomes
[8] = both sexes, human liver microsomes, pH 7.4
[9] = male, CD1, pH 7.4, mouse liver microsomes
[10] = male, CD1, mouse liver microsomes, pH 7.4
[11] = male, Sprague Dawley, pH 7.4, rat liver microsomes
[12] = male, Sprague Dawley, rat liver microsomes, pH 7.4

| SMILES | half-life (t1/2) [1] [min] | IC50 [2, 5] [µM] | IC50 [2, 6] [µM] | IC50 (P. falciparum) [µM] | half-life at 1 µM [3, 7] [min] | microsomal CLint at 1 µM [3, 8] [µL/min/mg] | Drug remaining after 30 min ([3]; human liver microsomes) [%] | half-life at 1 µM [3, 9] [min] | microsomal CLint at 1 µM [3, 10] [µL/min/mg] | half-life at 1 µM [3, 11] [min] | microsomal CLint at 1 µM [3, 12] [µL/min/mg] | Drug remaining after 30 min ([3]; mouse liver microsomes) [%] | Drug remaining after 30 min ([3]; rat liver microsomes) [%] | In vivo parasitemia reduction (%) (P. berghei-infected mice) | Fold changes, IC50 (10 minutes) to IC50 (120 minutes) [2] | Fold changes, IC50 (10 minutes) to IC50 (120 minutes) ([2]; listed as LH70 (1)) | Survival rate (%) from the RSA0-3h, F32-ART (resistant) ([4]; listed as 1) [%] | Survival rate (%) from the RSA0-3h, F32-ART (resistant) ([4]; listed as hybrid 1) [%] | Survival rate (%) from the RSA0-3h, F32-ART (resistant) ([4]; listed as 2) [%] | Survival rate (%) from the RSA0-3h, F32-ART (resistant) ([4]; listed as hybrid 2) [%] |
| --- | --- | --- | --- | --- | --- | --- | --- | --- | --- | --- | --- | --- | --- | --- | --- | --- | --- | --- | --- | --- |
| C[C@H]1[C@@H](O)O[C@@H]2O[C@@]3(C)CC[C@H]4[C@H](C)CC[C@@H]1[C@@]24OO3 [DHA, dihydroartemisinin, reference compound] | 60 to 180 | 262 | 161 | 0.005 |  |  |  |  |  |  |  |  |  |  |  |  |  |  |  |  |
| COCCOCCOCCOCCn1c(-c2ccc(-n3cc(-c4ccc(OC5OC6OC7(C)CCC8C(C)CCC(C5C)C68OO7)cc4)nn3)cc2)nc2ccccc21 (centres unmarked) [Hybrid 1] |  | 609 | 284 |  | 5 | 379 | 1 | 7 | 240 | 9 | 186 | 6 | 10 | > 99 | 3 | 2.1 | 2.3 ± 0.7 | ~2 |  |  |
| CC1CCC2C(C)C(OC(=O)CCC(=O)OCCNc3ccnc4cc(Cl)ccc34)OC3OC4(C)CCC1C32OO4 (centres unmarked) [Hybrid 2] |  |  |  |  | 4 | 479 | 0.3 | 6 | 275 | 5 | 376 | 4 | 1 | 89.4 ± 1.5 |  |  |  |  | 14.8 ± 6 | ~15 |
